Counter-ions that a name gives are not always drawn.
Experiments:
[1] = Example 16: interaction potential, Mucinex and Sudafed 12 Hour alone or together, 3-way crossover; format: in vivo, human
Source text: In another study drug interaction potential for combination drugs was examined.

[2] = in vivo; cited from earlier work
clinical = settings: human, in vivo, 1200 mg

Compound `CN[C@@H](C)[C@@H](O)c1ccccc1` [Pseudoephedrine, Pseudoephedrine hydrochloride] has an AUC(0-t) ([1]; human, in vivo, po, 120 mg, Pseudoephedrine AUC0-t, mean, Treatment B: 120 mg pseudoephedrine HCl alone (Sudafed 12 Hour), overnight fast) of 4020 ng·h/mL, an AUC(0-t) ([1]; human, in vivo, po, 120 mg, Pseudoephedrine AUC0-t, mean, Treatment C: 120 mg pseudoephedrine HCl along with 1200 mg guaifenesin (Sudafed 12 Hour + Mucinex), overnight fast) of 3920 ng·h/mL and an AUC(0-t) ([1]; human, in vivo, po, 120 mg, Pseudoephedrine AUC0-t, median, Treatment B: 120 mg pseudoephedrine HCl alone (Sudafed 12 Hour), overnight fast) of 3820 ng·h/mL. It also gave an AUC(0-t) ([1]; human, in vivo, po, 120 mg, Pseudoephedrine AUC0-t, median, Treatment C: 120 mg pseudoephedrine HCl along with 1200 mg guaifenesin (Sudafed 12 Hour + Mucinex), overnight fast) of 3930 ng·h/mL, an AUC(0-inf) ([1]; human, in vivo, po, 120 mg, Pseudoephedrine AUCinf, mean, Treatment B: 120 mg pseudoephedrine HCl alone (Sudafed 12 Hour), overnight fast) of 4500 ng·h/mL and an AUC(0-inf) ([1]; human, in vivo, po, 120 mg, Pseudoephedrine AUCinf, mean, Treatment C: 120 mg pseudoephedrine HCl along with 1200 mg guaifenesin (Sudafed 12 Hour + Mucinex), overnight fast) of 4400 ng·h/mL. For the same compound, the AUC(0-inf) ([1]; human, in vivo, po, 120 mg, Pseudoephedrine AUCinf, median, Treatment B: 120 mg pseudoephedrine HCl alone (Sudafed 12 Hour), overnight fast) was 4430 ng·h/mL, the AUC(0-inf) ([1]; human, in vivo, po, 120 mg, Pseudoephedrine AUCinf, median, Treatment C: 120 mg pseudoephedrine HCl along with 1200 mg guaifenesin (Sudafed 12 Hour + Mucinex), overnight fast) was 4250 ng·h/mL and the Cmax ([1]; human, in vivo, po, 120 mg, Pseudoephedrine Cmax, mean, Treatment B: 120 mg pseudoephedrine HCl alone (Sudafed 12 Hour), overnight fast) was 296 ng/mL. The Cmax ([1]; human, in vivo, po, 120 mg, Pseudoephedrine Cmax, mean, Treatment C: 120 mg pseudoephedrine HCl along with 1200 mg guaifenesin (Sudafed 12 Hour + Mucinex), overnight fast) was 289 ng/mL, the Cmax ([1]; human, in vivo, po, 120 mg, Pseudoephedrine Cmax, median, Treatment B: 120 mg pseudoephedrine HCl alone (Sudafed 12 Hour), overnight fast) was 298 ng/mL and the Cmax ([1]; human, in vivo, po, 120 mg, Pseudoephedrine Cmax, median, Treatment C: 120 mg pseudoephedrine HCl along with 1200 mg guaifenesin (Sudafed 12 Hour + Mucinex), overnight fast) was 286 ng/mL. The half-life ([1]; human, in vivo, po, 120 mg, Pseudoephedrine Half-life, mean, Treatment B: 120 mg pseudoephedrine HCl alone (Sudafed 12 Hour), overnight fast) was 6.05 h, the half-life ([1]; human, in vivo, po, 120 mg, Pseudoephedrine Half-life, mean, Treatment C: 120 mg pseudoephedrine HCl along with 1200 mg guaifenesin (Sudafed 12 Hour + Mucinex), overnight fast) was 6.04 h and the half-life ([1]; human, in vivo, po, 120 mg, Pseudoephedrine Half-life, median, Treatment B: 120 mg pseudoephedrine HCl alone (Sudafed 12 Hour), overnight fast) was 5.81 h. It also gave a half-life ([1]; human, in vivo, po, 120 mg, Pseudoephedrine Half-life, median, Treatment C: 120 mg pseudoephedrine HCl along with 1200 mg guaifenesin (Sudafed 12 Hour + Mucinex), overnight fast) of 5.63 h, a Tmax ([1]; human, in vivo, po, 120 mg, Pseudoephedrine Tmax, mean, Treatment B: 120 mg pseudoephedrine HCl alone (Sudafed 12 Hour), overnight fast) of 6.17 h and a Tmax ([1]; human, in vivo, po, 120 mg, Pseudoephedrine Tmax, mean, Treatment C: 120 mg pseudoephedrine HCl along with 1200 mg guaifenesin (Sudafed 12 Hour + Mucinex), overnight fast) of 5.75 h. For the same compound, the Tmax ([1]; human, in vivo, po, 120 mg, Pseudoephedrine Tmax, median, Treatment B: 120 mg pseudoephedrine HCl alone (Sudafed 12 Hour), overnight fast) was 6 h, the Tmax ([1]; human, in vivo, po, 120 mg, Pseudoephedrine Tmax, median, Treatment C: 120 mg pseudoephedrine HCl along with 1200 mg guaifenesin (Sudafed 12 Hour + Mucinex), overnight fast) was 6 h and the “Pseudoephedrine Clearance” value ([1]; mean, Treatment B: 120 mg pseudoephedrine HCl alone (Sudafed 12 Hour), overnight fast) was 23.66 L/h. The “Pseudoephedrine Clearance” value ([1]; mean, Treatment C: 120 mg pseudoephedrine HCl along with 1200 mg guaifenesin (Sudafed 12 Hour + Mucinex), overnight fast) was 24.30 L/h, the “Pseudoephedrine Clearance” value ([1]; median, Treatment B: 120 mg pseudoephedrine HCl alone (Sudafed 12 Hour), overnight fast) was 22.20 L/h and the “Pseudoephedrine Clearance” value ([1]; median, Treatment C: 120 mg pseudoephedrine HCl along with 1200 mg guaifenesin (Sudafed 12 Hour + Mucinex), overnight fast) was 23.16 L/h. For the same compound, the mean elimination half-life [2] was 4 to 6 h.

Compound `COc1ccccc1OCC(O)CO` (centres unmarked) [Guaifenesin, 3-(2-methoxyphenoxy)-1,2-propanediol] has an AUC(0-t) ([1]; human, in vivo, 1200 mg, Guaifenesin AUC0-t) of 7060 ng·h/mL, an AUC(0-inf) ([1]; human, in vivo, 1200 mg, Guaifenesin AUCinf) of 7280 ng·h/mL and a clearance ([1]; human, in vivo, 1200 mg, Guaifenesin Clearance) of 2750 mL/min. For the same compound, the Cmax ([1]; human, in vivo, 1200 mg, Guaifenesin Cmax) was 1700 ng/mL, the half-life ([1]; human, in vivo, 1200 mg, Guaifenesin Half-life) was 2.82 h and the Tmax ([1]; human, in vivo, 1200 mg, Guaifenesin Tmax) was 0.75 h. For the same compound, the AUC(0-t) (clinical; Guaifenesin AUC0-t) was 8350 ng·h/mL, the AUC(0-inf) (clinical; Guaifenesin AUCinf) was 8830 ng·h/mL and the clearance (clinical; Guaifenesin Clearance) was 2270 mL/min. For the same compound, the Cmax (clinical; Guaifenesin Cmax) was 1920 ng/mL, the half-life (clinical; Guaifenesin Half life) was 3.03 h and the Tmax (clinical; Guaifenesin Tmax) was 0.75 h. For the same compound, the typical plasma half-life [2] was “approximately one”.
